Measured values reported in US20220017863A1, “SIRT2-ABLATED CHIMERIC T CELLS” (H. Lee Moffitt Cancer Center and Research Institute, Inc., priority 2019, published 2022).
“Also recorded” adds a separate entry of the source.

Tests used:
[1] = biological target: T1, Sirt2 deacetylase activity (Homo sapiens, UniProt Q8IXJ6); test: Western blot of acetylated α-tubulin in human CD3+ enriched T cells; format: cell-based; conditions: 48 hr
T1 construct: endogenous in cells; host or cells: human CD3+ T cells enriched from PBMC of healthy donors
T1 sequence (Q8IXJ6 1-389): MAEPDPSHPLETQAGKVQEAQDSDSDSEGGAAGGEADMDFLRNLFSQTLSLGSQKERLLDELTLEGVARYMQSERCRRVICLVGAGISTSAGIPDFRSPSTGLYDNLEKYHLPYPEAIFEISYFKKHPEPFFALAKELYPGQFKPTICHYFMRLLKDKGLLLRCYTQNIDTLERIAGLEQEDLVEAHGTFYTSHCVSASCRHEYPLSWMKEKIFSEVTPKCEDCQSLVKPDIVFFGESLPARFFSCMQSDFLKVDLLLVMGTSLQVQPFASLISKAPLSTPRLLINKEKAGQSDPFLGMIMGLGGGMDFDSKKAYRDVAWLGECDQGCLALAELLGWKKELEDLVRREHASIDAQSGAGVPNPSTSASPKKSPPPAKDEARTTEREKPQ
Description: Human peripheral blood mononuclear cells (PBMC) were obtained from healthy donors by density gradient centrifugation using Ficoll-Paque™ PLUS Media (GE Healthcare). CD3^+ lymphocytes were negatively enriched using human Pan T cell isolation Kit™ (Miltenyi Biotec).
Whole cell lysates were prepared using lysis buffer (Pierce RIPA buffer, ThermoFisher Scientific) supplemented with cOmplete™ Protease Inhibitor Cocktail and PhosSTOP Phosphatase Inhibitor (Roche Applied Science).
Cell lysates (20 ug) or IP samples were loaded onto 10% SDS-PAGE and separated by electrophoresis followed by semi-dry transfer into polyvinylidene fluoride membranes (Immun-Blot PVDF membrane, Bio-Rad) using Trans-Blot Turbo transfer system (Bio-Rad). After transfer, the membranes were blocked at room temperature with Tris-buffered saline (TBS) containing 0.05% Tween-20 (TBST) and 5% (w/v) milk for 1 h and then incubated overnight at 4° C. with a specific primary antibody (indicated below). […] After washing 3 times with TBST, bound antibodies were detected by chemiluminescence using the Pierce™ ECL Western Blotting Substrate and the Super Signal West Femto Maximum Sensitivity Substrate kits (ThermoFisher Scientific). […]

SIRT1 = biological target: T2, SIRT1 (Homo sapiens, UniProt Q96EB6); conditions: at 10-fold higher levels than the SIRT2 IC50; cited from earlier work
T2 sequence (Q96EB6 1-747): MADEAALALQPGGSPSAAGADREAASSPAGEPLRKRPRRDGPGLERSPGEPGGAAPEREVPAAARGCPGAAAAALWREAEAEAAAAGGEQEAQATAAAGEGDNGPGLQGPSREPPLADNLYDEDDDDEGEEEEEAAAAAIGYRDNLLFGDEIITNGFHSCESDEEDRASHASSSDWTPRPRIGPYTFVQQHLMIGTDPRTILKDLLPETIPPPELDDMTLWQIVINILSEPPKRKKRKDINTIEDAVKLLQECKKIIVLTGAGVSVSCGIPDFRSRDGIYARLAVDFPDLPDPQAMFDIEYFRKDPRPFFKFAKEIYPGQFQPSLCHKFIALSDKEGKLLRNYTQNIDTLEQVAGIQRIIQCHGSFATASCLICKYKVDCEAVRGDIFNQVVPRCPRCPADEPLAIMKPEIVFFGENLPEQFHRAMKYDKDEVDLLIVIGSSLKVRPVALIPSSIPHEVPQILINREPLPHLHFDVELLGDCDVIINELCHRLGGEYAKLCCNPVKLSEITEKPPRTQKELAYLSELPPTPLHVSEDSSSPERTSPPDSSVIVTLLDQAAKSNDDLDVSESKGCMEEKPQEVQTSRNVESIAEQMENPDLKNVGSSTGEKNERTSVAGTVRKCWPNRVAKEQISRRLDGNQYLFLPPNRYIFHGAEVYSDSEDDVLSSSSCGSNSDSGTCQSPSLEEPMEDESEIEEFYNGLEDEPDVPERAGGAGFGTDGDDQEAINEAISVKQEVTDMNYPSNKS

capacity to block Sirt2 deacetylase activity, monitored by acetylated α-tubulin levels [1]: confirmed; also recorded: validated
SMILES: N#C/C(=C/c1ccc(-c2cc(Cl)ccc2Cl)o1)C(=O)Nc1cccc2ncccc12 [AGK2]
effect on SIRT1 (SIRT1): minimally affects
